From patent publication US5286648A, “A84575 antibiotics” (Eli Lilly and Company, priority 1991, dated 1994)
Converted amounts (≈) assume the structure as drawn. Where two headings read alike, the source gives them in different places.

Tests used:
[1] = tested on: Staphylococcus epidermidis; experiment: In vitro activity vs. Staphylococcus epidermidis strains, agar dilution, Mueller-Hinton agar (Table 7); type: cell-based
Hemophilus influenza = experiment: In vitro activity vs. Hemophilus influenza strains, broth dilution, Shadler broth + 5% fildes extract (Table 12); type: cell-based
Source text: ^1 Using brothdilution method and testing the strains with Shadler
broth +5% fildes extract

Clostridium perfringens = experiment: microbe, parasite or virus in culture; type: cell-based; conditions: 24 h
Eubacterium aerofaciens = experiment: Susceptibility of anaerobic bacterial isolates, agar dilution (Table 13); type: cell-based; conditions: Collinsella aerofaciens, 24 h
[2] = tested on: Peptococcum asaccharolyticus; experiment: as above; type: cell-based; conditions: 24 h
[3] = tested on: Peptostreptococcus anaerobium; experiment: as above; type: cell-based; conditions: 24 h
Propionibacterium acnes = experiment: as above; type: cell-based; conditions: Cutibacterium acnes, 24 h
Bacteroides fragilis = experiment: as above; type: cell-based
[4] = tested on: Bacteroides malaninogenicus; experiment: as above; type: cell-based; conditions: 24 h
Bacteroides vulgatis = experiment: as above; type: cell-based; conditions: 24 h
Bacteroides corrodens = experiment: as above; type: cell-based; conditions: Eikenella corrodens, 24 h
Clostridium difficile = experiment: Susceptibility of Clostridium difficile strains, agar dilution (Table 14); type: cell-based; conditions: Clostridioides difficile, 24 h
Source text: (§1) *MIC Determined by the AgarDilution Method, Endpoints Read After 24Hr.

[5] = tested on: Peptococcus asaccharolyticus; experiment: Susceptibility of anaerobic cocci isolates, agar dilution (Table 16); type: cell-based; conditions: Peptoniphilus asaccharolyticus, 24 h
Peptococcus magnus = experiment: as above; type: cell-based; conditions: Finegoldia magna, 24 h
Peptococcus prevoti = experiment: as above; type: cell-based; conditions: 24 hr, A84575: 3 different lots
Source text: as §1

[6] = tested on: Peptostreptococcus anaerobius; experiment: as above; type: cell-based; conditions: 24 h
[7] = tested on: Peptostreptococcus intermedius; experiment: as above; type: cell-based; conditions: 24 h
Streptococcus pyogenes [8] = experiment: In vivo activity, administered subcutaneously to mice (Table 17); conditions: sc, subcutaneous, LD challenge 464
Streptococcus aureus = experiment: as above; conditions: sc
[9] = Plasma levels in mice (Table 18); type: in vivo, mice (ICR Barrier); set-up: unit not given here; conditions: subcutaneous, 20 mg/kg, n = 5
Streptococcus pyogenes [10] = experiment: In vitro activity vs. Streptococcus pyogenes strains, agar dilution, Mueller-Hinton agar (Table 11)
S. salivarius = experiment: In vitro activity vs. miscellaneous Streptococcus strains, agar dilution, Mueller-Hinton agar (Table 9)
S. sanguis = experiment: as above
S. mutans = experiment: as above

Question: What does the source list for CN[C@H](CC(C)C)C(=O)N[C@H]1C(=O)N[C@@H](CC(N)=O)C(=O)N[C@H]2C(=O)N[C@H]3C(=O)N[C@H](C(=O)N[C@H](C(=O)O)c4cc(O)cc(O)c4-c4cc3ccc4O)[C@H](O)c3ccc(c(Cl)c3)Oc3cc2cc(c3O[C@@H]2O[C@H](CO)[C@@H](O)[C@H](O)[C@H]2O[C@H]2C[C@](C)(N)[C@H](O)[C@H](C)O2)Oc2ccc(cc2Cl)[C@H]1O [Vancomycin]?
Answer: MIC ([1]; strain 10-S-81, methicillin-resistant): 1 µg/mL (≈ 0.69 µM); MIC ([1]; strain 1202-18): 2 µg/mL (≈ 1.38 µM); MIC ([1]; strain 3078): 1 µg/mL (≈ 0.69 µM); MIC ([1]; strain 3079): 2 µg/mL (≈ 1.38 µM); MIC ([1]; strain 12477, methicillin-resistant): 2 µg/mL (≈ 1.38 µM); MIC ([1]; strain 48213): 2 µg/mL (≈ 1.38 µM); MIC ([1]; strain 48989): 1 µg/mL (≈ 0.69 µM); MIC ([1]; strain 49030): 2 µg/mL (≈ 1.38 µM); MIC ([1]; strain 49128, methicillin-resistant): 1 µg/mL (≈ 0.69 µM); MIC ([1]; strain 49536): 1 µg/mL (≈ 0.69 µM); MIC ([1]; strain 50766): 1 µg/mL (≈ 0.69 µM); MIC ([1]; strain S-3): 2 µg/mL (≈ 1.38 µM); MIC ([1]; strain ST-214, methicillin-resistant): 0.5 µg/mL (≈ 0.345 µM); MIC ([1]; strain ST-215, methicillin-resistant): 2 µg/mL (≈ 1.38 µM); MIC ([1]; strain ST-216): 1 µg/mL (≈ 0.69 µM); MIC ([1]; strain ST-217, methicillin-resistant): 1 µg/mL (≈ 0.69 µM); MIC ([1]; strain ST-220, methicillin-resistant): 1 µg/mL (≈ 0.69 µM); MIC ([1]; strain ST-222, methicillin-resistant): 0.5 µg/mL (≈ 0.345 µM); MIC (Hemophilus influenza; strain Astes): 64 µg/mL; MIC (Hemophilus influenza; strain Bond): 64 µg/mL; MIC (Hemophilus influenza; strain Bruno): 128 µg/mL; MIC (Hemophilus influenza; strain Harper): 64 µg/mL; MIC (Hemophilus influenza; strain Johnson): 64 µg/mL; MIC (Hemophilus influenza; strain Lassig): 32 µg/mL; MIC (Hemophilus influenza; strain Lawrence): 64 µg/mL; MIC (Hemophilus influenza; strain Newton): 64 µg/mL; MIC (Clostridium perfringens): 1 µg/mL (≈ 0.69 µM); MIC (Eubacterium aerofaciens): 8 µg/mL (≈ 5.52 µM); MIC [2]: 4 µg/mL (≈ 2.76 µM); MIC [3]: 1 µg/mL (≈ 0.69 µM); MIC (Propionibacterium acnes): 4 µg/mL (≈ 2.76 µM); MIC (Bacteroides fragilis; Bacteroides fragilis, 24 h): 16 µg/mL (≈ 11 µM); MIC (Bacteroides fragilis; strain 1877, 24 hr, A84575: 3 different lots): 16 µg/mL (≈ 11 µM); MIC (Bacteroides fragilis; strain 1936B, 24 hr, A84575: 3 different lots): 16 µg/mL (≈ 11 µM); MIC ([4]; strain 1856/28, A84575: 3 different lots): > 64 µg/mL; MIC ([4]; strain 2736, A84575: 3 different lots): 16 µg/mL (≈ 11 µM); MIC (Bacteroides vulgatis): 8 µg/mL (≈ 5.52 µM); MIC (Bacteroides corrodens): 16 µg/mL (≈ 11 µM); MIC (Clostridium difficile; strain 78, A84575: 3 different lots): 4 µg/mL (≈ 2.76 µM); MIC (Clostridium difficile; strain 107B, A84575: 3 different lots): 0.25 µg/mL (≈ 0.173 µM); MIC (Clostridium difficile; strain 111F, A84575: 3 different lots): 1 µg/mL (≈ 0.69 µM); MIC (Clostridium difficile; strain 1153, A84575: 3 different lots): 1 µg/mL (≈ 0.69 µM); MIC (Clostridium difficile; strain 2634, A84575: 3 different lots): 0.5 µg/mL (≈ 0.345 µM); MIC (Clostridium difficile; strain 3424-5B, A84575: 3 different lots): 1 µg/mL (≈ 0.69 µM); MIC (Clostridium difficile; strain 3816, A84575: 3 different lots): 1 µg/mL (≈ 0.69 µM); MIC (Clostridium difficile; strain 3950D, A84575: 3 different lots): 0.5 µg/mL (≈ 0.345 µM); MIC (Clostridium difficile; strain 6890, A84575: 3 different lots): 0.5 µg/mL (≈ 0.345 µM); MIC (Clostridium difficile; strain 8484, A84575: 3 different lots): 2 µg/mL (≈ 1.38 µM); MIC (Clostridium difficile; strain A-194, A84575: 3 different lots): 1 µg/mL (≈ 0.69 µM); MIC (Clostridium difficile; strain A-195, A84575: 3 different lots): 0.5 µg/mL (≈ 0.345 µM); MIC (Clostridium difficile; strain A-196, A84575: 3 different lots): 0.5 µg/mL (≈ 0.345 µM); MIC (Clostridium difficile; strain A-279, A84575: 3 different lots): 0.5 µg/mL (≈ 0.345 µM); MIC (Clostridium difficile; strain A-280, A84575: 3 different lots): 1 µg/mL (≈ 0.69 µM); MIC (Clostridium difficile; strain A-281, A84575: 3 different lots): 1 µg/mL (≈ 0.69 µM); MIC (Clostridium difficile; strain WAL-2112, A84575: 3 different lots): 1 µg/mL (≈ 0.69 µM); MIC (Clostridium difficile; strain WAL-3657, A84575: 3 different lots): 2 µg/mL (≈ 1.38 µM); MIC (Clostridium difficile; strain WAL-4268, A84575: 3 different lots): 1 µg/mL (≈ 0.69 µM); MIC ([5]; strain 1302, A84575: 3 different lots): 1 µg/mL (≈ 0.69 µM); MIC ([5]; strain WAL-3218, A84575: 3 different lots): 0.125 µg/mL (≈ 0.0863 µM); MIC (Peptococcus magnus; strain 1401, A84575: 3 different lots): 0.125 µg/mL (≈ 0.0863 µM); MIC (Peptococcus magnus; strain 1421, A84575: 3 different lots): 0.5 µg/mL (≈ 0.345 µM); MIC (Peptococcus magnus; strain 29328, A84575: 3 different lots): 1 µg/mL (≈ 0.69 µM); MIC (Peptococcus prevoti; strain 1281, read-out: MIC): 2 µg/mL (≈ 1.38 µM); MIC (Peptococcus prevoti; strain 1293): 2 µg/mL (≈ 1.38 µM); MIC (Peptococcus prevoti; strain 1407): 2 µg/mL (≈ 1.38 µM); MIC ([6]; strain 8, A84575: 3 different lots): 1 µg/mL (≈ 0.69 µM); MIC ([6]; strain 52, A84575: 3 different lots): 1 µg/mL (≈ 0.69 µM); MIC ([6]; strain 59, A84575: 3 different lots): 0.25 µg/mL (≈ 0.173 µM); MIC ([6]; strain 1428, A84575: 3 different lots): 0.03 µg/mL (≈ 0.0207 µM); MIC ([6]; strain 1451, A84575: 3 different lots): 2 µg/mL (≈ 1.38 µM); MIC ([6]; strain 1477, A84575: 3 different lots): 2 µg/mL (≈ 1.38 µM); MIC ([7]; strain 1524, A84575: 3 different lots): 1 µg/mL (≈ 0.69 µM); MIC ([7]; strain 1624, A84575: 3 different lots): 0.25 µg/mL (≈ 0.173 µM); ED50 (Streptococcus pyogenes [8]): 0.72 mg/kg; ED50 (Streptococcus aureus): 0.83 mg/kg; Plasma level ([9]; 0.08 hours, *1 only 1 zone out of 5 (A84575 Complex)): 5.84 ± 2.68; Plasma level ([9]; 0.33 hours): 14.25 ± 7.8; Plasma level ([9]; 0.66 hours): 7.47 ± 2.5; Plasma level ([9]; 1 hour): 5.41 ± 2.4; Plasma level ([9]; 2 hours, *2 one very high concentration in one animal (A84575 Complex)): 0.87 ± 0.2; MIC (Streptococcus pyogenes [10]; ATCC12344, strain ATCC 12344): 1 µg/mL (≈ 0.69 µM); MIC (Streptococcus pyogenes [10]; strain 9931): 0.5 µg/mL (≈ 0.345 µM); MIC (Streptococcus pyogenes [10]; strain 10389): 0.5 µg/mL (≈ 0.345 µM); MIC (Streptococcus pyogenes [10]; strain 12385): 2 µg/mL (≈ 1.38 µM); MIC (Streptococcus pyogenes [10]; strain 12961): 1 µg/mL (≈ 0.69 µM); MIC (Streptococcus pyogenes [10]; strain C203): 1 µg/mL (≈ 0.69 µM); MIC (Streptococcus pyogenes [10]; strain DS663-72): 0.5 µg/mL (≈ 0.345 µM); MIC (Streptococcus pyogenes [10]; strain HB93): 1 µg/mL (≈ 0.69 µM); MIC (Streptococcus pyogenes [10]; strain K-1): 0.5 µg/mL (≈ 0.345 µM); MIC (Streptococcus pyogenes [10]; strain K-2): 0.5 µg/mL (≈ 0.345 µM); MIC (Streptococcus pyogenes [10]; strain K-3): 0.5 µg/mL (≈ 0.345 µM); MIC (Streptococcus pyogenes [10]; strain K-4): 1 µg/mL (≈ 0.69 µM); MIC (Streptococcus pyogenes [10]; strain K-5): 1 µg/mL (≈ 0.69 µM); MIC (Streptococcus pyogenes [10]; strain K-6): 0.5 µg/mL (≈ 0.345 µM); MIC (S. salivarius): 1 µg/mL (≈ 0.69 µM); MIC (S. sanguis; strain I-SSI-547): 0.5 µg/mL (≈ 0.345 µM); MIC (S. sanguis; strain I-SSI-910): 0.5 µg/mL (≈ 0.345 µM); MIC (S. sanguis; strain II-SSII-895): 0.5 µg/mL (≈ 0.345 µM); MIC (S. sanguis; strain II-SSII-911): 1 µg/mL (≈ 0.69 µM); MIC (S. mutans; strain SM-1122): 1 µg/mL (≈ 0.69 µM); MIC (S. mutans; strain SM-1134): 2 µg/mL (≈ 1.38 µM)
